Assay results published in patent US4670469A, “Hydroxamic acid and pharmaceutical preparations containing the same” (VEB Arzneimittelwerk Dresden, priority 1983, dated 1987).

Key:
thrombocyte aggregation = experiment: Arachidonic acid-induced thrombocyte aggregation in thrombocyte-rich plasma; format: cell-based, humans; conditions: Homo sapiens; 0.8 mM arachidonic acid; concentration giving total restraint of aggregation
From the text: Since with the new medicines the restraints of lipoxygenase has been identified as a molecular type of attack, also their influence on the thrombocyte-aggregation has been tested. The essential role of the lipoxygenase pathway for irreversibility of the thrombocyte aggregation is now known. (C. E. Dutilh et al. Prostaglandins and Medicine 6, 111 (1981)). The key role is attributed to the irreversibility of the thrombocyte aggregation in the pathogenesis of thrombotic illnesses. […] In the experiments, the thrombocyte aggregation was triggered either by means of arachidonic acid or by means of platelet activation factor (PAF-Acether).
The testing of the compounds for antithrombotic and thrombolytic activity follows in authentic cell systems of humans in vitro. Thrombocyte-rich plasma from the blood of healthy donors is obtained by centrifugation at 1,000×g. The measurement of the thrombocyte aggregation follows by means of an aggregometer based upon diffuse light scattering or light absorption of the produced cell aggregate. The thrombocyte-rich plasma is pre-incubated at 37° C. for 3 minutes with the active substance or substances; thereafter the thrombocyte aggregation is triggered through the addition of either 0.8 mM arachidonic acid or 1 μM platelet activation factor (PAF-acether). The preparations are then stirred with a velocity of 800 rpm. Indeed according to the employed active substance concentration there occurs either a strong delay or a complete inhibition of the thrombocyte aggregation.

[1] = target: T1, lipoxygenase from soybeans (Glycine max, UniProt P08170); experiment: Inhibition of lipoxygenase from soybeans; format: biochemical; conditions: pH 7.4, read-out: inhibition of soybean lipoxygenase
T1 construct: host or cells: soybeans
T1 sequence (P08170 1-839): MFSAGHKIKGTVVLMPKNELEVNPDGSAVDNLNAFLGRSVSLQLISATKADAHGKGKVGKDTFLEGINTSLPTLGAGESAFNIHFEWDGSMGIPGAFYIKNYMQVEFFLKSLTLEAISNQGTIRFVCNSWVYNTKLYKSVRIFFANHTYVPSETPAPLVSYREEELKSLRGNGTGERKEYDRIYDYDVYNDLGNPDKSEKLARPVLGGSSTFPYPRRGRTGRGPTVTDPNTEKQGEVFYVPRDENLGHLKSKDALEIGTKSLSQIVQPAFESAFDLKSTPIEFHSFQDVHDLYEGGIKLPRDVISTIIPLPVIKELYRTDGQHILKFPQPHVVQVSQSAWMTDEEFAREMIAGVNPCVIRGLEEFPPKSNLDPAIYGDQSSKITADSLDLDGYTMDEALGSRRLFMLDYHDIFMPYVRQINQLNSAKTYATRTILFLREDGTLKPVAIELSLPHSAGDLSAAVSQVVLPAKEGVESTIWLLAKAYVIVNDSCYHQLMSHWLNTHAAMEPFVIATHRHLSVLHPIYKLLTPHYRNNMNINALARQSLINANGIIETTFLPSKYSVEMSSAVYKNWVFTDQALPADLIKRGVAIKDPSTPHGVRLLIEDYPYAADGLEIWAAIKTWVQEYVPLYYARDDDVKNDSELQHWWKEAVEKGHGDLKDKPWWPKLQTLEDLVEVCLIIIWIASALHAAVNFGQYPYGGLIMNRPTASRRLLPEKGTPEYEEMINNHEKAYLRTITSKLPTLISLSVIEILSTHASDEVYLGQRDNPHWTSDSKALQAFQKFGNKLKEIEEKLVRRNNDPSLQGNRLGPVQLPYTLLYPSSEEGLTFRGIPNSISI
Description: The inhibition of thrombocyte aggregation is likewise ascribed to the inhibition of lipoxygenase in the cells. It has thus been shown that the arachidonate-lipoxygenase activity of a microsome-free lysate of human thrombocyte concentrates is inhibited to the extent of 100% by means of 0.25 mM salicylhydroxamic acid. Moreover, it has been shown that also a series of further lipoxygenases are inhibited by means of the here described hydroxamic acids. The lipoxygenase from soybeans reacts the most insensitive, i.e. it is inhibited by means of 1 mM salicylhydroxamic acid at pH 7.4 to an extent of 60% and by means of 0.4 mM 2-hydroxy-1-napthylhydroxamic acid to an extent of 54%. In contrast, for the lipoxygenase from peas which come closer in their characteristics to human lipoxygenase, the following I50 -values are provided: salicyl hydroxamic acid, 5 μM, 2-hydroxy-1-napthylhydroxamic acid, 2 μM, 2(2'-napthoxy)-acethydroxamic acid, 2 μM. Moreover it has been shown that the formation lipoxygenase products of arachidonic acid in in vitro cultivated aorta endothelial cells of calves is hindered through 0.1 mM 2-hydroxy-1-napthylhydroxamic acids.

| Structure (SMILES) | IC100 (thrombocyte aggregation) [µM] | inhibition at 1000 µM [1] [%] |
| --- | --- | --- |
| O=C(COc1ccc2ccccc2c1)NO [2(2'-naphthoxy)-acethydroxamic acid] | 60 |  |
| O=C(NO)c1ccccc1O [salicylhydroxamic acid] |  | 60 |
